Test systems include HL-60; U-251; HOP-62; HCT-116; OVCAR-5; A549; LOX IMVI; HT-29; SN12C; EKVX; NCI-H522; TK-10; SK-OV-3; ACHN; HCT-15; NCI-H226.
Holding throughout (experiment): growth of human tumour cells (NCI), 48 h

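These data come from cells grown in 96-well plates and exposed to compound for 48 hours at five concentrations. GI50 marks 50% less growth.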 Calls of active or inactive are those of the source. Rule as the data show it: active = GI50 up to about 1.1 µM and inactive = higher.

For `CC1(C)CC(N(C(=O)/C=C/c2ccc([N+](=O)[O-])o2)C2CCCCC2)CC(C)(C)N1`, the GI50 in the assay on HL-60 is 2.21 µM (inactive); in the assay with U-251, 5.35 µM (inactive); in the assay on HOP-62, 20 µM (inactive); with HCT-116 it was 3.18 µM (inactive); in the assay with OVCAR-5, 23.6 µM (inactive); with A549, 15 µM (inactive). For the same molecule, the GI50 with LOX IMVI was 12 µM (inactive); in the assay with HT-29 it was 4.49 µM (inactive); in the assay with SN12C it was 6.22 µM (inactive); in the assay on EKVX it was 13.9 µM (inactive); with NCI-H522 it was 7.91 µM (inactive); in the assay on TK-10 it was 21.3 µM (inactive). For the same molecule, the GI50 in the assay with SK-OV-3 was 28.6 µM (inactive); with ACHN it was 12.8 µM (inactive); with HCT-15, 7.45 µM.
Turning to `CN(C)c1ccc(Cc2cc(C(C)(C)C)cc(C(C)(C)C)c2O)cc1`, the GI50 in the assay with HL-60 is 21 µM (inactive); in the assay on U-251, 15.2 µM (inactive); in the assay on HOP-62, 20.9 µM (inactive); with HCT-116, 13.2 µM (inactive); with OVCAR-5 it was 6.27 µM (inactive); in the assay with A549, 19.8 µM (inactive). Further, the GI50 is 10.6 µM (inactive) in the assay with LOX IMVI; 16.1 µM (inactive) in the assay on HT-29; 16.1 µM (inactive) in the assay with SN12C; 22.1 µM (inactive) in the assay with EKVX; 18.4 µM (inactive) in the assay on NCI-H522; 13.2 µM (inactive) with TK-10. The GI50 is 29.3 µM (inactive) with SK-OV-3, 16.6 µM (inactive) with ACHN and 15.8 µM with HCT-15.
With `c1ccc([B-]23Oc4ccccc4[NH+]2c2ccccc2O3)cc1` (stereo unspecified), the GI50 in the assay with HL-60 is 17.5 µM (inactive); in the assay with U-251, > 100 µM (inactive); with HOP-62, > 100 µM (inactive); in the assay on HCT-116, > 100 µM (inactive); in the assay with OVCAR-5, > 100 µM (inactive); in the assay on A549 it was > 100 µM (inactive). For the same molecule, the GI50 in the assay on LOX IMVI was 62.2 µM (inactive); with HT-29, > 100 µM (inactive); in the assay with SN12C, > 100 µM (inactive); in the assay on NCI-H226, > 100 µM (inactive); in the assay on EKVX, > 100 µM (inactive); in the assay with NCI-H522 it was 16.2 µM (inactive). Moreover, the figures for the GI50 in the assay on TK-10, in the assay on SK-OV-3 and in the assay with ACHN were 47.2 µM (inactive), > 100 µM (inactive) and 75.7 µM (inactive), respectively.
Turning to `CCc1cccc(C)c1NC(=O)NS(=O)(=O)c1ccc(C)cc1`, the GI50 in the assay on HL-60, in the assay with U-251, with HOP-62, with HCT-116, in the assay on OVCAR-5 and in the assay with A549 was > 100 µM (inactive) each time. The GI50 in the assay with LOX IMVI, in the assay on SN12C, in the assay with EKVX, with NCI-H522, with TK-10 and in the assay with SK-OV-3 was > 100 µM (inactive) in each case. Further, the results for the GI50 with ACHN and in the assay on HCT-15 were > 100 µM (inactive) and > 100 µM, respectively.
In the case of `CCCCSN1C(=O)c2ccccc2C1=S`, the GI50 in the assay on HL-60 is 21.4 µM (inactive); in the assay with U-251, > 100 µM (inactive); in the assay with HOP-62 it was > 100 µM (inactive); in the assay on HCT-116, 40.6 µM (inactive); with OVCAR-5, > 100 µM (inactive); with A549 it was > 100 µM (inactive). In addition, the GI50 in the assay with LOX IMVI was 54.2 µM (inactive); with HT-29, 29.4 µM (inactive); in the assay on SN12C, 71.3 µM (inactive); in the assay on EKVX, > 100 µM (inactive); with NCI-H522, > 10 µM (inactive); with TK-10 it was > 100 µM (inactive). Also, the GI50 in the assay with SK-OV-3 was > 100 µM (inactive); in the assay with ACHN it was > 100 µM (inactive); in the assay with HCT-15, > 100 µM.
On to `CC1(C)C(c2ccccc2)C12CCC1(C2=O)C(c2ccccc2)C1(C)C` (stereo unspecified), for which the GI50 in the assay with HL-60 is 20.1 µM (inactive); in the assay on U-251 it was 17.8 µM (inactive); with HOP-62, 26.1 µM (inactive); in the assay on HCT-116, 16.6 µM (inactive); in the assay on OVCAR-5, 24.7 µM (inactive); in the assay on A549 it was 26.4 µM (inactive). Moreover, the GI50 was 20.2 µM (inactive) in the assay with LOX IMVI; 16.1 µM (inactive) with HT-29; 27.1 µM (inactive) in the assay with SN12C; 17.9 µM (inactive) in the assay on NCI-H226; 25.1 µM (inactive) with EKVX; 13.5 µM (inactive) with NCI-H522. Also, the GI50 with TK-10 was 34.5 µM (inactive); in the assay with ACHN, 19.6 µM (inactive); in the assay on HCT-15 it was 24.2 µM.
As for `CC(C)CC(=O)N1CCN(C(=O)CC(C)C)c2ccccc21`, the GI50 in the assay on HL-60, in the assay with U-251, with HOP-62, in the assay on HCT-116, in the assay with OVCAR-5 and in the assay on A549 was > 100 µM (inactive) throughout. Moreover, the GI50 in the assay with LOX IMVI, in the assay with HT-29, with EKVX, in the assay with NCI-H522, with TK-10 and with SK-OV-3 was > 100 µM (inactive) in each case. Further, the GI50 with ACHN is > 100 µM (inactive).
Regarding `CCNC1=Nc2ccc(Cl)cc2C(c2ccccc2)=NN1`, the GI50 with HL-60 was 22.3 µM (inactive); with U-251 it was 20.5 µM (inactive); with HOP-62, 24.6 µM (inactive); in the assay on OVCAR-5, 21.8 µM (inactive); in the assay on A549, 35.7 µM (inactive); with LOX IMVI, 18.9 µM (inactive). Also, the GI50 with HT-29 was 15.8 µM (inactive); in the assay on SN12C, 32.4 µM (inactive); with NCI-H226, 20.7 µM (inactive); in the assay with EKVX, 45.9 µM (inactive); with NCI-H522, 14.6 µM (inactive); in the assay on TK-10 it was 28.4 µM (inactive). Also, the GI50 in the assay on SK-OV-3 is 37.1 µM (inactive); in the assay with ACHN, 31.7 µM (inactive); in the assay with HCT-15, 16.9 µM.
On to `O=[N+]([O-])c1ccccc1[S+]([O-])c1ccccc1` (stereo unspecified), for which the GI50 is 27.7 µM (inactive) with HL-60; 41.2 µM (inactive) with U-251; > 100 µM (inactive) with HOP-62; 57.9 µM (inactive) with HCT-116; > 100 µM (inactive) in the assay on OVCAR-5; 52.8 µM (inactive) in the assay with A549. The GI50 is 21.1 µM (inactive) with LOX IMVI; 62.7 µM (inactive) with HT-29; 75.5 µM (inactive) in the assay on SN12C; 49.9 µM (inactive) in the assay on NCI-H226; 65.6 µM (inactive) in the assay on NCI-H522; > 100 µM (inactive) in the assay on TK-10. Further, the GI50 with SK-OV-3 was > 100 µM (inactive); with ACHN, 69.7 µM (inactive); in the assay on HCT-15, 38.7 µM.
Turning to `O=C1[C@@H](c2ccc(Cl)cc2)[C@H]2CC=C[C@H]2N1O`, the GI50 with HL-60, in the assay with HOP-62, in the assay with A549, in the assay on LOX IMVI, in the assay with HT-29 and in the assay with SN12C was > 100 µM (inactive) throughout. In addition, the GI50 in the assay on NCI-H226 is > 100 µM (inactive); in the assay on EKVX, > 100 µM (inactive); in the assay on NCI-H522 it was 71.1 µM (inactive); in the assay on TK-10 it was > 100 µM (inactive); in the assay on SK-OV-3, > 100 µM (inactive); in the assay with HCT-15, 91.4 µM.
Turning to `Cc1cnoc1/N=C1\C=C(Nc2oncc2C)C(=O)c2ccccc21`, the GI50 in the assay with HL-60, with U-251, with HOP-62, in the assay on HCT-116, in the assay with OVCAR-5 and in the assay with A549 was > 100 µM (inactive) throughout. In addition, the GI50 in the assay on LOX IMVI was 23.3 µM (inactive); with HT-29, > 100 µM (inactive); with SN12C it was > 100 µM (inactive); in the assay on NCI-H226, > 100 µM (inactive); in the assay on EKVX it was > 100 µM (inactive); in the assay on TK-10 it was > 100 µM (inactive). The GI50 in the assay on SK-OV-3 is > 100 µM (inactive); with ACHN, > 100 µM (inactive); in the assay with HCT-15, 73.1 µM.
Turning to `CCN(CC)CCCCC1CCN(CC(=O)N2CC(C)C(=O)Nc3ccccc32)CC1` (stereo unspecified), the GI50 in the assay with HL-60, with U-251, in the assay on HOP-62, in the assay with HCT-116, in the assay with OVCAR-5 and in the assay on A549 was > 100 µM (inactive) throughout. The GI50 with LOX IMVI, in the assay with HT-29, in the assay on SN12C, in the assay with NCI-H226, in the assay with SK-OV-3 and with ACHN was > 100 µM (inactive) each time. Besides, the GI50 in the assay on HCT-15 was > 100 µM.
With `Cc1cc(Cl)ccc1NC(=O)CC1SC(N)=NC1=O` (stereo unspecified), the GI50 with HL-60, in the assay with U-251, in the assay with HOP-62, in the assay on OVCAR-5, with A549 and with LOX IMVI was > 100 µM (inactive) in each case. The GI50 with HT-29, in the assay on SN12C, in the assay with NCI-H226, in the assay with EKVX, in the assay with NCI-H522 and with TK-10 was > 100 µM (inactive) in each case. Besides, the GI50 in the assay with SK-OV-3 is > 100 µM (inactive); with ACHN, > 100 µM (inactive); in the assay on HCT-15, > 100 µM.
In the case of `Cc1ccc(C2=C(c3ccccc3)C(O)(c3ccccc3)C(c3ccccc3)=C2c2ccc(C)cc2)cc1`, the GI50 was 31.5 µM (inactive) with U-251; > 100 µM (inactive) in the assay on HOP-62; 29.9 µM (inactive) with HCT-116; > 100 µM (inactive) in the assay on OVCAR-5; > 100 µM (inactive) in the assay with A549; 46.2 µM (inactive) with HT-29. Moreover, the GI50 in the assay with SN12C was > 100 µM (inactive); in the assay on NCI-H226, > 100 µM (inactive); with EKVX, 64 µM (inactive); with NCI-H522, > 100 µM (inactive); in the assay with TK-10, 77.4 µM (inactive); in the assay on SK-OV-3, > 100 µM (inactive). The GI50 is > 100 µM (inactive) in the assay on ACHN and 35.2 µM with HCT-15.

The values above are taken from ChEMBL document CHEMBL1201862, “PubChem BioAssay data set” (2004).
